{"source": "patent US20240294465A1", "about": "“NOVEL ANTI-FIBROTIC DRUGS” (HELMHOLTZ ZENTRUM MUNCHEN - DEUTSCHES FORSCHUNGSZENTRUM FUR …, priority 2021, published 2024)", "key": {"[1]": {"system": "ECM deposition of collagen I, collagen V and fibulin 1 by phLFs+TGFβ1", "experiment": "3D ECM deposition assay (collagen I, collagen V, fibulin 1), dose-response and live imaging", "assay_type": "cell-based, human", "settings": "phLFs+TGFβ1, during 48 hours", "method": "phLFs were cultured in DMEM F-12 medium with 20% fetal bovine serum (FBS) and antibiotic supplement as mentioned above. Cells were seeded with 6000 cells/well in 384-well CellCarrier plates (Perkin Elmer, Cat #6007550). Following overnight incubation, cells were starved in serum-reduced medium (1% FBS with 0.1 mM 2-phosphoascorbate (Sigma, Cat #49752)) for 24 h. Afterwards, cells were treated with TGFβ1 (1 ng/ml) or vehicle, and additionally small molecules or appropriate vehicle controls were added. […] Fluorescenceconjugation of the collagen type 1 antibody was done by using the AlexaFluor-555 Protein Labeling Kit (Invitrogen, Cat #A20174) according to manufacturer's instructions. […]\nFollowing fixation, the automated imaging was achieved by using aconfocal laser scanning microscope (LSM710, Zeiss) with automated focus detection for three-dimensional image acquisition (1024 px×1024 px×9 px which equals a dimension of 1417 μm×1417 μm×16 μm). For post-acquisition analysis images were imported into IMARIS software (Bitplane) and volume detection or alternatively quantification of the mean fluorescence intensity, as well as Hoechst-stained cell nuclei were automatically counted by using Imaris' spot detection algorithm. […]"}, "[2]": {"system": "cellular contractility of phLFs", "experiment": "3D collagen gel contractility assay of primary human lung fibroblasts", "assay_type": "cell-based", "settings": "n=3 patient phLFs", "method": "In a 96-well imaging plate 50 μl 3D collagen gels were casted per well as described before (30), and 20.000 phLFs per well were seeded on top. Cells were treated with 1 ng/mL TGFβ1 and/or example 84. After 72 h cells were fixed with 4% paraformaldehyde. Collagen gels were imaged using an Axiolmager2 (Zeiss) and the gel diameter was determined using Zen Blue v2.5 (Zeiss)."}, "PAI-1/SERPINE1": {"system": "PAI-1/SERPINE1", "experiment": "Human precision cut lung slices (PCLS) with fibrotic cocktail: immunoblot of secreted PAI-1", "assay_type": "cell-based", "settings": "living human PCLS", "method": "PCLS were prepared as described before (31, 32). Shortly, PCLS were prepared from tumor-free peri-tumor tissue. The lung tissue was inflated with 3% agarose solution and solidified at 4° C. Tissue blocks were cut in μm thick PCLS using a vibration microtome Hyrax V50 (Zeiss). PCLS were cultured in DMEM F-12 medium and treated with a profibrotic cocktail, as described before (31), or vehicle, as well as with small molecules or vehicles for 7 days. After culturing and treatments, supernatants were harvested. PCLS were […] washed in PBS and protein was extracted as previously described (33). Briefly, PCLS were pooled in an Eppendorf tube and lysed in 500 μl ice-cold RIPA buffer (50 mM Tris-CI pH 7.4, 150 mM NaCl, 1% NP40, 0.25% Na-deoxycholate) containing 1× Roche complete mini protease inhibitor cocktail (Roche, Cat. #11697498001). After an incubation of 2 hours rotating at 4° C., the lung slices were removed from the lysates and the protein content was measured.\nCells were scraped off the plastic dish directly into 200 μl ice-cold RIPA buffer containing 1× Roche complete mini protease inhibitor cocktail. […] CXCL/IL-8 concentrations were determined using Human IL-8/CXCL8 DuoSet ELISA (DY208-05) according to the manufacturer's protocol."}, "[3]": {"system": "human lung organoids derived from human lung progenitor cells", "experiment": "Human lung organoid growth (colony formation efficiency)", "assay_type": "cell-based", "settings": "10 μM, 14 days in culture"}}}
{"smiles": "CCCCOc1ccccc1NC(=O)/C=C/c1ccc(OC)c(OC)c1", "note": "[Example 84, (E)-N-(2-butoxyphenyl)-3-(3,4-dimethoxyphenyl)acrylamide]", "values": [{"measurement": "dynamic deposition of collagen I and fibulin 1 (MFI, live imaging)", "setting": "[1]", "result": "inhibition of ECM deposition"}, {"measurement": "cellular contractility (collagen gel)", "setting": "[2]", "result": "significant inhibition of cellular contractility"}, {"measurement": "secreted PAI-1/SERPINE1", "setting": "PAI-1/SERPINE1", "result": "diminution of secreted pro-fibrotic PAI-1/SERPINE1"}, {"measurement": "organoid growth", "setting": "[3]", "result": "inhibited organoid growth"}, {"measurement": "viability of lung progenitor cells (calcein / ethidium homodimer III)", "setting": "[3]", "result": "many lung progenitor cells are still viable"}]}
